Results taken from US12569452B2, “Ophthalmic compositions comprising F6H8” (NOVALIQ GMBH, priority 2017, dated 2026).

Assay: Ocular tissue distribution after single topical ocular dose of 14C-F6H8, liquid scintillation counting
Format: in vivo, Dutch Belted (pigmented) female rabbits
Settings: for Mean concentration of radioactivity, Conjunctiva (bulbar) / Mean concentration of radioactivity, Conjunctiva (palpebral) / Mean concentration of radioactivity, Cornea / Mean concentration of radioactivity, Lacrimal gland (accessory) / Mean concentration of radioactivity, Lacrimal gland (main) / Mean concentration of radioactivity, Meibomian glands / Mean concentration of radioactivity, Sclera (anterior) / Mean concentration of radioactivity, Tears: single topical ocular dose
Protocol: The study is conducted to assess the ocular tissue distribution after topical ocular administration of ^14C-1-Perfluorohexyloctane (F6H8, NovaTears®) to Dutch Belted (pigmented) female rabbits.
On the first day of dosing, 5.474 mL of ^14C—F6H8 is combined with 9.526 mL of F6H8. The dose formulation is magnetically stirred and appears to be a colorless solution. The dose formulation is separated into vials to provide one vial per day for dose administration and it is stored at approximately −20° C. One vial per day is thawed prior to dose administration. In between dose administrations, the vial is capped and stored at approximately 5° C. when not in use.
Animals are not fasted prior to dose administration. All animals receive single 35 μL-drops of the dose formulation in each eye, with the right eye dosed first. All collection times are based on the time of dosing of the second (left) eye for the last dose, as applicable.
After the dose is administered, the eye is allowed to close naturally. Each animal is then restrained for approximately 1 minute to prevent rubbing of the eyes.
Tears and Ocular Tissue Collection: Tears are collected from two animals per group per time point at 0.25, 0.5, 1, 2, 4, 8, and 24 hours post-dose following the single dose or the last dose of the multiple dose scheme. Tears are collected using Tear Flo Test (TFT) strips that were dye free. One strip of paper is used for each eye for each time point. Following collection, the tube containing the strip is placed on dry ice or stored at approximately −70° C. until analysed.
At the time of sacrifice, both eyes are enucleated and ocular tissues including Aqueous humour, Conjunctiva (bulbar), Conjunctiva (palpebral), Lacrimal gland (accessory), Lacrimal gland (main), Meibomian glands (tarsal plate), Choroid-Retinal pigmented epithelium (Choroid-RPE), Cornea, Iris-ciliary body (ICB), Retina, Sclera (anterior), Sclera (posterior), Vitreous humour are collected.
Radioanalysis: All samples are analyzed for radioactivity in a Model 2900TR liquid scintillation counter (Packard Instrument Company) for at least 5 minutes or 100,000 counts, utilizing Ultima Gold XR or Hionic Fluor scintillation cocktails (Perkin Elmer). Each sample is homogenized before radioanalysis, unless the entire sample is used for analysis. All samples are analyzed in duplicate if sample size allows.
For Conjunctiva (bulbar and palpebral), Cornea, Lacrimal gland (main), Meibomian glands, Retina, and Sclera (anterior and posterior), each sample is digested in 2M sodium hydroxide in ethanol (80:20, v:v) and maintained at room temperature or in an oven set no higher than 30° C. until dissolved. Scintillation cocktail is added, and the samples are shaken and analyzed directly by LSC.
For Lacrimal gland (accessory), each sample is digested in 2M sodium hydroxide in ethanol (80:20, v:v) and maintained at room temperature or in an oven set no higher than 30° C. until dissolved. The sample is homogenized by mixing and duplicate weighed aliquots are analyzed directly by LSC.
For Tears, at least 10 mL of Ultima Gold XR scintillation cocktail is added, and the samples are shaken and analyzed by LSC.
Single topical ocular administration, radioanalysis of ocular tissues: The rabbits received a single topical ocular administration in both eyes. The target dose level is 45.6 mg/eye (25 μCi/eye). Following the single topical ocular dose of 35 μl of ^14C—F6H8, two animals per time point are sacrificed at 0.25, 0.5, 1, 2, 4, 8, and 24 hours post-dose in a sparse sampling profile. Ocular tissues (including tears collected prior to sacrifice) are collected from all animals at sacrifice.

[1] = single dose, between 0.25 and 4 hours post-dose

Radioactivity in the iris-ciliary body and choroid-RPE (single dose): No radioactivity is detected
Radioactivity in the vitreous humour and retina (single dose): Low levels
Highest mean concentration, Meibomian glands [1]: 294000 ng equivalents ^14C—F6H8/g
Highest mean concentration, accessory lacrimal gland [1]: 4280 ng equivalents ^14C—F6H8/g
Highest mean concentration, anterior sclera [1]: 2270 ng equivalents ^14C—F6H8/g
Highest mean concentration, bulbar conjunctiva [1]: 5450 ng equivalents ^14C—F6H8/g
Highest mean concentration, cornea [1]: 8230 ng equivalents ^14C—F6H8/g
Highest mean concentration, main lacrimal gland [1]: 4130 ng equivalents ^14C—F6H8/g
Highest mean concentration, palpebral conjunctiva [1]: 14200 ng equivalents ^14C—F6H8/g
Highest mean concentration, tears [1]: 2390000 ng equivalents ^14C—F6H8/g
Mean concentration of radioactivity, Conjunctiva (bulbar) (0.25 h post-dose): 5450 ng Equivalents ^14C-F6H8/g
Mean concentration of radioactivity, Conjunctiva (palpebral) (0.25 h post-dose): 14200 ng Equivalents ^14C-F6H8/g
Mean concentration of radioactivity, Cornea (0.25 h post-dose): 2040 ng Equivalents ^14C-F6H8/g
Mean concentration of radioactivity, Lacrimal gland (accessory) (0.25 h post-dose): 577 ng Equivalents ^14C-F6H8/g
Mean concentration of radioactivity, Lacrimal gland (main) (0.25 h post-dose): 1670 ng Equivalents ^14C-F6H8/g
Mean concentration of radioactivity, Meibomian glands (0.25 h post-dose): 294000 ng Equivalents ^14C-F6H8/g
Mean concentration of radioactivity, Sclera (anterior) (0.25 h post-dose): 1140 ng Equivalents ^14C-F6H8/g
Mean concentration of radioactivity, Tears (0.25 h post-dose): 2390000 ng Equivalents ^14C-F6H8/g
Mean concentration of radioactivity, Conjunctiva (bulbar) (0.5 h post-dose): 3680 ng Equivalents ^14C-F6H8/g
Mean concentration of radioactivity, Conjunctiva (palpebral) (0.5 h post-dose): 5180 ng Equivalents ^14C-F6H8/g
Mean concentration of radioactivity, Cornea (0.5 h post-dose): 8230 ng Equivalents ^14C-F6H8/g
Mean concentration of radioactivity, Lacrimal gland (accessory) (0.5 h post-dose): 0.00 ng Equivalents ^14C-F6H8/g
Mean concentration of radioactivity, Lacrimal gland (main) (0.5 h post-dose): 2770 ng Equivalents ^14C-F6H8/g
Mean concentration of radioactivity, Meibomian glands (0.5 h post-dose): 102000 ng Equivalents ^14C-F6H8/g
Mean concentration of radioactivity, Sclera (anterior) (0.5 h post-dose): 2270 ng Equivalents ^14C-F6H8/g
Mean concentration of radioactivity, Tears (0.5 h post-dose): 995000 ng Equivalents ^14C-F6H8/g
Mean concentration of radioactivity, Conjunctiva (bulbar) (1 h post-dose): 3320 ng Equivalents ^14C-F6H8/g
Mean concentration of radioactivity, Conjunctiva (palpebral) (1 h post-dose): 5700 ng Equivalents ^14C-F6H8/g
Mean concentration of radioactivity, Cornea (1 h post-dose): 6110 ng Equivalents ^14C-F6H8/g
Mean concentration of radioactivity, Lacrimal gland (accessory) (1 h post-dose): 255 ng Equivalents ^14C-F6H8/g
Mean concentration of radioactivity, Lacrimal gland (main) (1 h post-dose): 641 ng Equivalents ^14C-F6H8/g
Mean concentration of radioactivity, Meibomian glands (1 h post-dose): 57600 ng Equivalents ^14C-F6H8/g
Mean concentration of radioactivity, Sclera (anterior) (1 h post-dose): 1300 ng Equivalents ^14C-F6H8/g
Mean concentration of radioactivity, Tears (1 h post-dose): 444000 ng Equivalents ^14C-F6H8/g
Mean concentration of radioactivity, Conjunctiva (bulbar) (2 h post-dose): 3050 ng Equivalents ^14C-F6H8/g
Mean concentration of radioactivity, Conjunctiva (palpebral) (2 h post-dose): 4230 ng Equivalents ^14C-F6H8/g
Mean concentration of radioactivity, Cornea (2 h post-dose): 3230 ng Equivalents ^14C-F6H8/g
Mean concentration of radioactivity, Lacrimal gland (accessory) (2 h post-dose): 1450 ng Equivalents ^14C-F6H8/g
Mean concentration of radioactivity, Lacrimal gland (main) (2 h post-dose): 1530 ng Equivalents ^14C-F6H8/g
Mean concentration of radioactivity, Meibomian glands (2 h post-dose): 69200 ng Equivalents ^14C-F6H8/g
Mean concentration of radioactivity, Sclera (anterior) (2 h post-dose): 767 ng Equivalents ^14C-F6H8/g
Mean concentration of radioactivity, Tears (2 h post-dose): 700000 ng Equivalents ^14C-F6H8/g
Mean concentration of radioactivity, Conjunctiva (bulbar) (4 h post-dose): 1610 ng Equivalents ^14C-F6H8/g
Mean concentration of radioactivity, Conjunctiva (palpebral) (4 h post-dose): 2500 ng Equivalents ^14C-F6H8/g
Mean concentration of radioactivity, Cornea (4 h post-dose): 4480 ng Equivalents ^14C-F6H8/g
Mean concentration of radioactivity, Lacrimal gland (accessory) (4 h post-dose): 4280 ng Equivalents ^14C-F6H8/g
Mean concentration of radioactivity, Lacrimal gland (main) (4 h post-dose): 4130 ng Equivalents ^14C-F6H8/g
Mean concentration of radioactivity, Meibomian glands (4 h post-dose): 29100 ng Equivalents ^14C-F6H8/g
Mean concentration of radioactivity, Sclera (anterior) (4 h post-dose): 1170 ng Equivalents ^14C-F6H8/g
Mean concentration of radioactivity, Tears (4 h post-dose): 207000 ng Equivalents ^14C-F6H8/g
Mean concentration of radioactivity, Conjunctiva (bulbar) (8 h post-dose): 1340 ng Equivalents ^14C-F6H8/g
Mean concentration of radioactivity, Conjunctiva (palpebral) (8 h post-dose): 1790 ng Equivalents ^14C-F6H8/g
Mean concentration of radioactivity, Cornea (8 h post-dose): 6080 ng Equivalents ^14C-F6H8/g
Mean concentration of radioactivity, Lacrimal gland (accessory) (8 h post-dose): 2110 ng Equivalents ^14C-F6H8/g
Mean concentration of radioactivity, Lacrimal gland (main) (8 h post-dose): 2120 ng Equivalents ^14C-F6H8/g
Mean concentration of radioactivity, Meibomian glands (8 h post-dose): 21100 ng Equivalents ^14C-F6H8/g
Mean concentration of radioactivity, Sclera (anterior) (8 h post-dose): 1330 ng Equivalents ^14C-F6H8/g
Mean concentration of radioactivity, Tears (8 h post-dose): 6660 ng Equivalents ^14C-F6H8/g
Mean concentration of radioactivity, Conjunctiva (bulbar) (24 h post-dose): 1090 ng Equivalents ^14C-F6H8/g
Mean concentration of radioactivity, Conjunctiva (palpebral) (24 h post-dose): 2270 ng Equivalents ^14C-F6H8/g
Mean concentration of radioactivity, Cornea (24 h post-dose): 2730 ng Equivalents ^14C-F6H8/g
Mean concentration of radioactivity, Lacrimal gland (accessory) (24 h post-dose): 1500 ng Equivalents ^14C-F6H8/g
Mean concentration of radioactivity, Lacrimal gland (main) (24 h post-dose): 1810 ng Equivalents ^14C-F6H8/g
Mean concentration of radioactivity, Meibomian glands (24 h post-dose): 14700 ng Equivalents ^14C-F6H8/g
Mean concentration of radioactivity, Sclera (anterior) (24 h post-dose): 611 ng Equivalents ^14C-F6H8/g
Mean concentration of radioactivity, Tears (24 h post-dose): 1300 ng Equivalents ^14C-F6H8/g
Substance: ^14C-1-Perfluorohexyloctane [^14C-F6H8]
